Assay results as given in patent US20230008508A1, “COMBINATION THERAPIES FOR THE TREATMENT OF CANCER” (H. LEE MOFFITT CANCER CENTER AND RESEARCH INSTITUTE, INC., priority 2019, published 2023).

Tests used:
[1] = system: RDEB2; test: Sensitivity of cuSCC cell line to pramlintide (inhibition curve); format: cell-based
[2] = system: SRB12 cells; test: Radiation treatment with and without pramlintide; format: cell-based; settings: pramlintide at the IC40, FIG. 21
Procedure: During the experiments it was observed that Pramlintide induces ROS in in-vivo in tumors (FIG. 20). To investigate whether because of its effect on ROS pramlintide would have a synergistic effect on radiation sensitivity, SRB12 cells were treated with radiation with and without the presence of pramlintide. […] Accordingly, in one aspect, disclosed herein are methods of increasing the sensitivity of a cancer (such as for example, cutaneous squamous cell carcinoma (cuSCC) or lung cancer or any cancer comprising a p53, p63, or p73 mutation or aberrant expression thereof) in a subject to radiation therapy comprising administering to the subject an agent that inhibits ΔNp63 and/or ΔNp73. In one aspect the agent that inhibits ΔNp63 and/or ΔNp73 comprises an inhibitor of glycolysis (such as, for example, an amylin analog including but not limited to pramlintide).

[3] = system: p53 deficient thymic lymphomas; test: Tumor regression in p53 deficient tumors; format: in vivo
Source text: (§1) Here, is shown that deletion of the AN isoforms of p63 or p73 leads to metabolic reprogramming and regression of p53 deficient tumors (FIG. 1). […] When investigated further it was shown that pramlintide suppresses 4Np63 expression (FIG. 4). […] These findings were validated across the sensitive cell lines Colo16 and RDEB2 and the resistant cell lines SCCIC1 and SRB12 for pramlintide (symlin) administration and regulation by ΔNp63 showing reduced levels for CYR61 and CTGF in the sensitive lines and no effect or increases in resistant lines (FIG. 6). A similar observation was also made with the F-box protein FBXO16. […] Looking at additional cell types, ΔNp63 was expressed in sensitive cells but not resistant cells (FIG. 9). To see if the regulation pattern for CYR61, CTGF, and FBXO16 was maintained in HNSCC cell lines, the expression level for each was measured in SQ20B and FaDu cells with and without the application of pramlintide (symlin) (FIG. 10). As for the Sensitive cuSCC lines, the sensitive HNSCC lines upregulate FBXO16 and downregulate CYR61 and CTGF in response to both pramlintide showing that pramlintide mediated degradation of ΔNp63 affects target gene expression. Thus, target genes cay be used as a biomarker of responsiveness to pramlintide. We next investigated the effect of pramlintide (symlin) on ΔNp63 expression levels in SQ20B (FIG. 11) and FaDu (FIG. 12) cell lines.

[4] = system: p53 deficient lung cancers; test: Tumor regression in p53 deficient tumors; format: in vivo
Source text: as §1

[5] = system: tumors; settings: in-vivo; prior published studies; FIG. 20; cited from earlier work
[6] = system: FaDu Head and Neck SCC line; test: Glycolysis measured by Extracellular Acidification Rate (Seahorse); format: cell-based; settings: 10 micromolar; sensitive FaDu HNSCC line; FIG. 2D
Source text: (§2) Glycolysis, as measured by Extracellular Acidification Rate (Seahorse), is diminished by pramlintide administration (10 micromolar) in the sensitive SQ20B and FaDu Head and Neck SCC lines. […]

[7] = system: SQ20B Head and Neck SCC line; test: as above; format: cell-based; settings: 10 micromolar; sensitive SQ20B HNSCC line; FIG. 2D
Source text: as §2

[8] = system: H1975 cells; test: Cell proliferation and survival (cell cycle arrest, annexin V apoptosis); format: cell-based; settings: FIG. 16
Procedure: (§3) Cell cycle arrest and apoptosis are increased by pramlintide and HDACi in HCC95 lung SCC and H1975 lung adenocarcinoma cell lines.
(§4) In fact, it was observed that both pramlintide and HDACi treatment reduces ΔNp63 in H1975 lung adenocarcinoma (LUAD) cells (FIG. 15). […] To investigate what effects panobinostat has on the glycolytic rate of HCC95 and H1975 cells, glycolysis was measured by ECAR showing in both […] glycolysis was decreased with treatment (FIG. 17).

[9] = system: HCC95 cells; test: as above; format: cell-based; settings: FIG. 16
Procedure: as §3, §4

[10] = system: CTGF; test: Expression of ΔNp63 target gene CTGF; format: cell-based
Source text: (§5) Sensitive lines downregulate CYR61 and CTGF in response to both pramlintide and direct siRNA-mediated knockdown of ΔNp63 showing that pramlintide mediated degradation of ΔNp63 affects target gene expression. Resistant lines upregulate CYR61 and CTGF in response to both pramlintide and direct siRNA-mediate knockdown of ΔNp63.
as §1

[11] = system: Colo16; test: Sensitivity of cuSCC cell line to pramlintide (inhibition curve); format: cell-based
Source text: as §2, §1

[12] = system: SRB12; test: as above; format: cell-based
Source text: as §2, §1

[13] = system: SCCIC1; test: as above; format: cell-based
Source text: as §2, §1

[14] = system: HCC95 lung SCC cells; test: Glycolytic rate measured by ECAR; format: cell-based; settings: FIG. 17
Procedure: (§6) Glycolysis as measured by ECAR in HCC95 lung SCC and H1975 lung adenocarcinoma cells are decreased by pramlintide.
as §4

[15] = system: H1975 lung adenocarcinoma cells; test: Glycolytic rate measured by ECAR; format: cell-based; settings: FIG. 17
Procedure: as §6, §4

[16] = system: cutaneous squamous cell carcinoma (cuSCC) cell lines; test: Glycolysis of cuSCC cell lines; format: cell-based
[17] = system: CYR61; test: Expression of ΔNp63 target gene CYR61; format: cell-based
Source text: as §5, §1

[18] = system: FBXO16; test: Expression of ΔNp63 target gene FBXO16; format: cell-based
Source text: Sensitive lines upregulate FBXO16 in response to both pramlintide and direct siRNA-mediate knockdown of ΔNp63 showing that pramlintide mediated degradation of ΔNp63 affects target gene expression. Thus target genes may be used as a biomarker of responsiveness to pramlintide. Resistant lines downregulate FBXO16 in response to both pramlintide and direct siRNA-mediate knockdown of ΔNp63 showing that pramlintide mediated degradation of ΔNp63 affects target gene expression.
as §1

[19] = system: ΔNp63; test: ΔNp63 expression / protein levels (western blots); format: cell-based; settings: for ΔNp63 protein expression: western blot
Source text: as §1, §4

[20] = system: spontaneous UV-driven cutaneous squamous cell carcinoma (cuSCC); test: Tumor regression in spontaneous UV-driven cuSCC model; format: in vivo; settings: FIG. 3
Source text: as §1

[21] = resistant cuSCC lines (SCCIC1, SRB12), FIG. 6
[22] = sensitive HNSCC lines (SQ20B, FaDu), FIG. 10
[23] = sensitive cuSCC lines (Colo16, RDEB2), FIG. 6

SMILES: CC[C@H](C)[C@H](NC(=O)[C@@H]1CCCN1C(=O)CNC(=O)[C@H](Cc1ccccc1)NC(=O)[C@H](CC(N)=O)NC(=O)[C@H](CC(N)=O)NC(=O)[C@H](CO)NC(=O)[C@H](CO)NC(=O)[C@H](Cc1c[nH]cn1)NC(=O)[C@@H](NC(=O)[C@H](CC(C)C)NC(=O)[C@H](Cc1ccccc1)NC(=O)[C@H](CC(N)=O)NC(=O)[C@H](C)NC(=O)[C@H](CC(C)C)NC(=O)[C@H](CCCNC(=N)N)NC(=O)[C@H](CCC(N)=O)NC(=O)[C@@H](NC(=O)[C@H](C)NC(=O)[C@@H]1CSSC[C@H](NC(=O)[C@@H](N)CCCCN)C(=O)N[C@@H](CC(N)=O)C(=O)N[C@@H]([C@@H](C)O)C(=O)N[C@@H](C)C(=O)N[C@@H]([C@@H](C)O)C(=O)N1)[C@@H](C)O)C(C)C)C(=O)N[C@@H](CC(C)C)C(=O)N1CCC[C@H]1C(=O)N1CCC[C@H]1C(=O)N[C@H](C(=O)N[C@@H](CC(N)=O)C(=O)N[C@H](C(=O)NCC(=O)N[C@@H](CO)C(=O)N[C@@H](CC(N)=O)C(=O)N[C@H](C(=O)N[C@@H](Cc1ccc(O)cc1)C(N)=O)[C@@H](C)O)C(C)C)[C@@H](C)O [pramlintide]
- Sensitivity to pramlintide [1]: sensitive
- Sensitivity to radiation treatment [2]: more sensitive to radiation treatment
- Tumor regression [3]: rapid tumor regression
- Tumor regression [4]: rapid tumor regression
- ROS in tumors [5]: induces ROS
- Glycolysis (Extracellular Acidification Rate) [6]: diminished
- Glycolysis (Extracellular Acidification Rate) [7]: diminished
- Apoptosis (annexin V staining) ([8]; H1975): increased apoptosis
- Proliferation ([8]; H1975 cells): reduced proliferation
- Cell cycle arrest ([8]; H1975 lung adenocarcinoma): increased
- Apoptosis (annexin V staining) ([9]; HCC95): increased apoptosis
- Proliferation ([9]; HCC95 cells): reduced proliferation
- Cell cycle arrest ([9]; HCC95 lung SCC): increased
- CTGF expression [10, 21]: upregulate
- CTGF expression [10, 22]: downregulate
- CTGF expression [10, 23]: downregulate
- Sensitivity to pramlintide [11]: sensitive
- Sensitivity to pramlintide [12]: resistant
- Sensitivity to pramlintide [13]: resistant
- Glycolysis (ECAR) [14]: decreased
- Glycolysis (ECAR) [15]: decreased
- Glycolysis ([16]; resistant cuSCC lines, FIG. 2A, 2C): do not exhibit this decrease in glycolysis
- Glycolysis ([16]; sensitive cells, FIGS. 2A-2D): suppresses glycolysis
- CYR61 expression [17, 21]: upregulate
- CYR61 expression [17, 22]: downregulate
- CYR61 expression [17, 23]: downregulate
- FBXO16 expression ([18]; resistant cuSCC lines, FIG. 8): downregulate
- FBXO16 expression [18, 22]: upregulate
- FBXO16 expression ([18]; sensitive cuSCC lines, FIG. 8): upregulate
- ΔNp63 expression ([19]; FIG. 4, cell line not stated): suppresses ΔNp63 expression
- Dependence of ΔNp63 suppression on Fbxw7 expression ([19]; FIG. 13): needs to be present
- ΔNp63 protein expression ([19]; FaDu, FIG. 12): decreased protein expression
- ΔNp63 protein levels ([19]; H1975 LUAD cells, FIG. 15): reduce ΔNp63
- ΔNp63 protein levels ([19]; LUSC HCC95 cells, FIG. 14): reduces ΔNp63 protein levels
- ΔNp63 protein expression ([19]; SQ20B, FIG. 11): decreased protein expression
- Tumor regression [20]: induces tumor regression
